Experimental data taken from patent US20050282818A1, “Ubiquitin ligase inhibitors” (Rigel Pharmaceuticals, Inc., priority 2004, published 2005).

How the values were obtained:
[1] = target: T1, ROC1/CUL1 (Homo sapiens, UniProt P62877+Q13616); assay: ROC1/CUL1 ubiquitin ligase assay (SCF assay); format: biochemical
T1 construct: made in house
Protocol: Inhibition of ubiquitin ligase activity of E1+E2+E3 was measured using the protocol as described in WO 01/75145 with E3 as the ROC1/CUL1, ROC1/CUL2, or ROC2/CUL5 complex.
The wells of nickel-substrate 96-well plates (Pierce Chemical) are blocked with 100 μl of 1 casein/phosphate buffered saline (PBS) for 1 hour at room temperature, then washed with 200 μl of PBST (0.1% Tween-20 in PBS) 3 times. To each well is added the following Flag-ubiquitin (see above) reaction solution: 62.5 mM Tris pH 7.5, 6.25 mm MgCl2, 0.75 mM DTT, 2.5 mM ATP, 2.5 mM NaF1, 2.5 nM Okadaic acid, 100 ng Flag-ubiquitin (made as described above).
The buffer solution is brought to a final volume of 80 μl with Milipore-filtered water, followed by the addition of 10 μl DMSO.
To the above solution is then added 10 μl of ubiquitination enzymes in 20 mM Tris buffer, pH 7.5, and 5% glycerol. E2-Ubch5c and E3-His ROC1/Cul1, ROC1/CUL2, and ROC2/CUL5 are made as described in WO 01/75145. E1 is obtained commercially (Affiniti Research Products, Exeter, U. K.). The following amounts of each enzyme are used for these assays: 5 ng/well of E1; […] E2; and 100 ng/well His-E3. Varying amounts of compounds according to the invention are added and the reaction allowed to proceed at room temperature for 1 hour.
Following the ubiquitination reaction, the wells are washed with 200 μl of PBST 3 times. For measurement of the enzyme-bound ubiquitin, 100 gel of Mouse anti-Flag (1:10,000) and anti-Mouse Ig-HRP (1:15, 000) in PBST are added to each well and allowed to incubate at room temperature for 1 hour. The wells are then washed with 200 μl of PBST 3 times, followed by the addition of 100 μl of luminol substrate (1/5 dilution). Luminescence for each well is then measured using a fluorimeter.
Table 2 below illustrates the inhibitory activity of the compounds of the invention determined by the TRAF6/Uev1A/Ubc13 assay as well as in the ICAM, APC and the ROC1/CUL1 Ubiquitin Ligase Assay (SCF Assay). The IC50 values were determined using a various concentrations of the compounds.

[2] = tested on: MIA PaCa-2 cells; assay: Cell proliferation PAD assay, MIA PaCa-2; format: cell-based; conditions: Homo sapiens, Miapaca2 cells, 9pt, 48 hours
From the text: (§1) Table 3 illustrates the inhibitory activity of the compounds of the invention determined by the PAD assay described above in a number of cell types. Apoptosis was not
(§2) Cell lines used are available from American Type Culture Collection (ATCC), for example, cell cultures containing A549 (ATCC# CCL-185), HeLa (ATCC# CCL-2), HCT116 ATTC# CCL-247), and H1299 (ATCC# CRL-5803) cells were maintained in T175 flasks following the ATCC recommended media and handling procedures. […] A 20,000 cells/ml solution was made for plating. Cells were plated in black Packard 96 well plates by placing 100 μl per well (2,000 cells per well). […]
(§3) Cells to be analyzed by photography were fixed and stained. […]

[3] = tested on: COLO 205 cells; assay: Cell proliferation PAD assay, COLO 205; format: cell-based; conditions: Homo sapiens, Colo205 cells, 9pt, 48 hours
From the text: as §1, §2, §3

T1 sequence (P62877 whole entry): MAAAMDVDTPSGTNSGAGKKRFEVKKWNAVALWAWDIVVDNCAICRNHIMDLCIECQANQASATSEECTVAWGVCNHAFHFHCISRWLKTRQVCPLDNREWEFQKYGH
T1 sequence (Q13616 whole entry): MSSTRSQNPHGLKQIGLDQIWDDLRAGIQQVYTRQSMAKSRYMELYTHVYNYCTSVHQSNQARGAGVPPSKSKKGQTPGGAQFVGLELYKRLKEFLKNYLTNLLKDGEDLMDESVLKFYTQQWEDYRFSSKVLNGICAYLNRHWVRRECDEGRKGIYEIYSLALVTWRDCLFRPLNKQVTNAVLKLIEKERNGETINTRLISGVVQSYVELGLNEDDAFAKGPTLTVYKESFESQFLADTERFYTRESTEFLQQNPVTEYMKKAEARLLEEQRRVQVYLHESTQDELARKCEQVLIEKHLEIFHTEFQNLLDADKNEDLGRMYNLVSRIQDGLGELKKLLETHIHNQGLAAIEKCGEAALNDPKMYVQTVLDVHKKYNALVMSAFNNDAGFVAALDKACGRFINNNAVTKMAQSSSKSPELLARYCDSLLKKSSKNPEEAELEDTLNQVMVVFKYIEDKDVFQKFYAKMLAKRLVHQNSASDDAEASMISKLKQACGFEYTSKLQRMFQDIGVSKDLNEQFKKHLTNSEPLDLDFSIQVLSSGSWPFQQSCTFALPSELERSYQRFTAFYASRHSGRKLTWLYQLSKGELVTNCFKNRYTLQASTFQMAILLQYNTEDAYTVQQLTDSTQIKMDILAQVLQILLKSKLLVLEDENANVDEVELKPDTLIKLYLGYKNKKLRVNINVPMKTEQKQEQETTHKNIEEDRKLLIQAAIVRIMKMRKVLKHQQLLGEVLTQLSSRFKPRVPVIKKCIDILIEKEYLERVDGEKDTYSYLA

IC50 [1]	IC50 [2]	IC50 [3]	Structure (SMILES)
≥ 20 µM	–	–	O=S(=O)(Nc1cccc(F)c1)c1ccc(Cl)c2nonc12 [compound 263, 7-chloro-N-(3-fluorophenyl)-2,1,3-benzoxadiazole-4-sulfonamide]
≥ 20 µM	< 1 µM	< 1 µM	CC1(C)CCN(S(=O)(=O)c2c(Cl)ccc3nonc23)CC1 [compound 245, 5-chloro-4-[(4,4-dimethylpiperidin-1-yl)sulfonyl]-2,1,3-benzoxadiazole]
≥ 20 µM	–	–	O=S(=O)(Nc1ccc(F)c(F)c1)c1ccc(Cl)c2nonc12 [compound 262, 7-chloro-N-(3,4-difluorophenyl)-2,1,3-benzoxadiazole-4-sulfonamide]
≥ 20 µM	–	–	N#CC1(c2ccccc2)CCN(S(=O)(=O)c2ccc(O)c3nonc23)CC1 [compound 199, 1-[(7-hydroxy-2,1,3-benzoxadiazol-4-yl)sulfonyl]-4-phenylpiperidine-4-carbonitrile]
≥ 20 µM	–	–	O=S(=O)(c1ccc(Sc2ccc(O)cc2)c2nonc12)N1CCC(Oc2ncccn2)CC1 [compound 226, 4-[(7-{[4-(pyrimidin-2-yloxy)piperidin-1-yl]sulfonyl}-2,1,3-benzaxadiazol-4-yl)thio]phenol]
≥ 20 µM	–	–	N#Cc1ccc(N2CCN(S(=O)(=O)c3c(Cl)ccc4nonc34)CC2)nc1 [compound 209, 6-{4-[(5-chloro-2,1,3-benzoxadiazol-4-yl)sulfonyl]piperazin-1-yl}nicotinonitrile]
≥ 20 µM	–	–	CC(=O)N1CCN(S(=O)(=O)c2c(Sc3cccc4cccnc34)ccc3nonc23)CC1 [compound 214, 8-({4-[(4-acetylpiperazin-1-yl)sulfonyl]-2,1,3-benzoxadiazol-5-yl}thio)quinoline]
≥ 20 µM	–	–	CC1CC(C)CN(S(=O)(=O)c2ccc(Cl)c3nonc23)C1 (centres unmarked) [compound 192, 4-chloro-7-[(3,5-dimethylpiperidin-1-yl)sulfonyl]-2,1,3-benzoxadiazole]
≥ 20 µM	–	–	Cc1cc(C)cc(-c2cccc3nonc23)c1 [compound 285, 4-(3,5-Dimethylphenyl)-2,1,3-benzoxadiazole]
